{"source": "ChEMBL document CHEMBL6078680", "about": "“Improving the Stability and Anti-Infective Activity of Sea Turtle AMPs Using Multiple Structural Modification Strategies” (J Med Chem, 2024)", "key": {"Cell membrane [1]": {"test_system": "Cell membrane", "assay": "Disruption of cell membrane integrity in Escherichia coli ATCC 25922 assessed as cell membrane damage at 5 times MIC measured after 30 mins by scanning electron microscopic analysis", "format": "subcellular"}, "Acinetobacter baumannii [2]": {"test_system": "Acinetobacter baumannii", "assay": "Antimicrobial activity against Acinetobacter baumannii ATCC19606 assessed as reduction in microbial growth incubated for 18 hrs by broth microdilution method", "format": "functional"}, "Escherichia coli [3]": {"test_system": "Escherichia coli", "assay": "Antimicrobial activity against Escherichia coli CMCC44102 assessed as reduction in microbial growth incubated for 18 hrs by broth microdilution method", "format": "functional"}, "Staphylococcus aureus [4]": {"test_system": "Staphylococcus aureus", "assay": "Antimicrobial activity against Staphylococcus aureus CMCC 26003 at 5 times MIC measured at 180 mins", "format": "functional, organism-based"}, "Escherichia coli [5]": {"test_system": "Escherichia coli", "assay": "Antimicrobial activity against Escherichia coli ATCC 25922 assessed as reduction in microbial growth incubated for 18 hrs by broth microdilution method", "format": "functional"}, "Staphylococcus aureus [6]": {"test_system": "Staphylococcus aureus", "assay": "Bactericidal activity against Staphylococcus aureus CMCC 26003 assessed as bacterial eradication incubated at 0.5 hrs in presence of thiourea", "format": "functional, organism-based"}, "Escherichia coli [7]": {"test_system": "Escherichia coli", "assay": "Antibacterial activity against Escherichia coli ATCC 25922 at 1 times MIC in presence of exogenous DNA", "format": "functional, organism-based"}, "Staphylococcus aureus [8]": {"test_system": "Staphylococcus aureus", "assay": "Antibiofilm activity against Staphylococcus aureus CMCC 26003 assessed as inhibition of biofilm formation incubated for 48 hrs by crystal violet staining based analysis", "format": "functional, organism-based"}, "Enterococcus faecalis": {"test_system": "Enterococcus faecalis", "assay": "Antimicrobial activity against Enterococcus faecalis ATCC 29217 assessed as reduction in microbial growth incubated for 18 hrs by broth microdilution method", "format": "functional"}, "Acinetobacter baumannii [9]": {"test_system": "Acinetobacter baumannii", "assay": "In vivo antibacterial activity against Acinetobacter baumannii ATCC19606 infected in BALB/c mouse assessed as reduction in bacterial load in kidney at 15 mg/kg, ip measured after 12 hrs", "format": "functional, organism-based"}, "[10]": {"assay": "Acute toxicity in BALB/c mouse assessed as mortality at 20 mg/kg, iv measured for 24 hrs", "format": "organism-based", "conditions": "in vivo, read-out: Activity"}, "[11]": {"assay": "Acute toxicity in BALB/c mouse assessed as mortality at 50 mg/kg, iv measured for 24 hrs", "format": "organism-based", "conditions": "in vivo, read-out: Activity"}, "Acinetobacter baumannii [12]": {"test_system": "Acinetobacter baumannii", "assay": "In vivo antibacterial activity against Acinetobacter baumannii ATCC19606 infected in BALB/c mouse assessed as reduction in bacterial load in liver at 15 mg/kg, ip measured after 3 hrs", "format": "functional, organism-based"}, "[13]": {"assay": "Hemolytic activity at human Erythrocyte assessed as hemolysis at 100 microg/ml", "format": "toxicity, cell-based", "conditions": "erythrocytes, at 100 µg/mL, read-out: Activity"}, "[14]": {"assay": "Acute toxicity in BALB/c mouse assessed as effect on ALT level at 10 mg/kg, iv measured for 24 hrs", "format": "organism-based", "conditions": "in vivo"}, "[15]": {"test_system": "Staphylococcus epidermidis", "assay": "Antimicrobial activity against Staphylococcus epidermidis assessed as reduction in microbial growth incubated for 18 hrs by broth microdilution method", "format": "functional"}, "Staphylococcus aureus [16]": {"test_system": "Staphylococcus aureus", "assay": "Antimicrobial activity against Staphylococcus aureus ATCC 43300 assessed as reduction in microbial growth incubated for 18 hrs by broth microdilution method", "format": "functional"}, "Acinetobacter baumannii [17]": {"test_system": "Acinetobacter baumannii", "assay": "In vivo antibacterial activity against Acinetobacter baumannii ATCC19606 infected in BALB/c mouse assessed as reduction in bacterial load in kidney at 15 mg/kg, ip measured after 3 hrs", "format": "functional, organism-based"}, "Enterococcus faecium": {"test_system": "Enterococcus faecium", "assay": "Antimicrobial activity against Enterococcus faecium 34 assessed as reduction in microbial growth incubated for 18 hrs by broth microdilution method", "format": "functional"}, "Acinetobacter baumannii [18]": {"test_system": "Acinetobacter baumannii", "assay": "Antipersister-activity against Acinetobacter baumannii ATCC 19606 assessed as elimination of persister cells at 50 times MIC preincubated adherent persistent cells with colistin incubation for 24 hrs", "format": "functional"}, "Acinetobacter baumannii [19]": {"test_system": "Acinetobacter baumannii", "assay": "In vivo antibacterial activity against Acinetobacter baumannii ATCC19606 infected in BALB/c mouse assessed as reduction in bacterial load in lung at 15 mg/kg, ip measured after 12 hrs", "format": "functional, organism-based"}, "Peritoneal macrophage [20]": {"test_system": "Peritoneal macrophage", "assay": "Antiinflammatory activity in mouse Peritoneal macrophage cells assessed as inhibition of LPS-induced TNF-alpha production at 20 microg/ml incubated for 6 hrs by ELISA analysis", "format": "functional, cell-based", "conditions": "dose 20.0 µg/ml"}, "[21]": {"assay": "Acute toxicity in BALB/c mouse assessed as mortality at 15 mg/kg, iv measured for 24 hrs", "format": "organism-based", "conditions": "in vivo, read-out: Activity"}, "Staphylococcus aureus [22]": {"test_system": "Staphylococcus aureus", "assay": "Antimicrobial activity against Staphylococcus aureus 08032706 assessed as reduction in microbial growth incubated for 18 hrs by broth microdilution method", "format": "functional"}, "Pseudomonas aeruginosa": {"test_system": "Pseudomonas aeruginosa", "assay": "Antimicrobial activity against Pseudomonas aeruginosa CMCC10104 assessed as reduction in microbial growth incubated for 18 hrs by broth microdilution method", "format": "functional"}, "Acinetobacter baumannii [23]": {"test_system": "Acinetobacter baumannii", "assay": "In vivo antibacterial activity against Acinetobacter baumannii ATCC19606 infected in BALB/c mouse assessed as survival at 15 mg/kg, ip administered for 12 hrs and measured on day 7", "format": "functional", "conditions": "time 7.0 day"}, "Acinetobacter baumannii [24]": {"test_system": "Acinetobacter baumannii", "assay": "Antibiofilm activity against Acinetobacter baumannii ATCC 19606 assessed as biofilm eradication incubated for 24 hrs by crystal violet staining based analysis", "format": "functional, organism-based"}, "Staphylococcus aureus [25]": {"test_system": "Staphylococcus aureus", "assay": "Antimicrobial activity against Staphylococcus aureus CMCC 26003 assessed as reduction in microbial growth incubated for 18 hrs by broth microdilution method", "format": "functional"}, "Acinetobacter baumannii [26]": {"test_system": "Acinetobacter baumannii", "assay": "In vivo antibacterial activity against Acinetobacter baumannii ATCC19606 infected in BALB/c mouse assessed as reduction in bacterial load in lung at 15 mg/kg, ip measured after 3 hrs", "format": "functional, organism-based"}, "Cell membrane [27]": {"test_system": "Cell membrane", "assay": "Disruption of cell membrane integrity in Staphylococcus aureus CMCC 26003 assessed as cell membrane damage at 5 times MIC measured after 30 mins by scanning electron microscopic analysis", "format": "subcellular"}, "Escherichia coli [28]": {"test_system": "Escherichia coli", "assay": "Antibacterial activity against Escherichia coli ATCC 25922 assessed as increase in intracellular ROS production at 2 to 5 times MIC by DCFH-DA staining based assay", "format": "functional, organism-based"}, "Acinetobacter baumannii [29]": {"test_system": "Acinetobacter baumannii", "assay": "In vivo antibacterial activity against Acinetobacter baumannii ATCC19606 infected in BALB/c mouse assessed as reduction in bacterial load at 15 mg/kg, ip", "format": "functional, organism-based", "conditions": "time 3.0 hrs"}, "Peritoneal macrophage [30]": {"test_system": "Peritoneal macrophage", "assay": "Antiinflammatory activity in mouse Peritoneal macrophage cells assessed as inhibition of LPS-induced IL-6 production at 20 microg/ml incubated for 6 hrs by ELISA analysis", "format": "functional, cell-based", "conditions": "dose 20.0 µg/ml"}, "Clostridium perfringens": {"test_system": "Clostridium perfringens", "assay": "Antimicrobial activity against Clostridium perfringens ATCC 13124 assessed as reduction in microbial growth incubated for 18 hrs by broth microdilution method", "format": "functional"}, "Staphylococcus aureus [31]": {"test_system": "Staphylococcus aureus", "assay": "Antimicrobial activity against Staphylococcus aureus CMCC 26003 assessed as fold increase in MIC incubated for 18 hrs in presence of CCCP", "format": "functional"}}, "note": "Calls of active or inactive are those of the source. No cut-off for these calls is given here.", "data": [{"smiles": "CC[C@H](C)[C@H](NC(=O)[C@@H](CCCNC(=N)N)NC(=O)[C@H](CO)NC(=O)[C@H](Cc1c[nH]cn1)NC(=O)[C@@H](CCCNC(=N)N)NC(=O)[C@H](CC(C)C)NC(=O)[C@@H](NC(=O)[C@@H](CCCNC(=N)N)NC(=O)CNC(=O)[C@H](CC(C)C)NC(=O)[C@H](CCC(N)=O)NC(=O)[C@@H](CCCCN)NC(=O)[C@@H](CCCNC(=N)N)NC(=O)[C@@H](NC(=O)[C@@H](CCCCN)NC(=O)[C@@H](CCCCN)NC(=O)[C@@H](N)Cc1ccccc1)C(C)C)C(C)C)C(=O)N[C@H](C(=O)N[C@H](C(=O)NCC(=O)NCC(=O)N[C@H](CCCNC(=N)N)C(=O)N[C@@H](CCSC)C(=O)N[C@H](CCCNC(=N)N)C(=O)N[C@@H](Cc1ccccc1)C(=O)O)C(C)C)[C@@H](C)O", "values": [{"measurement": "Activity", "setting": "Cell membrane [1]", "result": "Active"}, {"measurement": "MIC", "setting": "Acinetobacter baumannii [2]", "result": 18.8, "unit": "mg/L"}, {"measurement": "MIC", "setting": "Escherichia coli [3]", "result": 18.8, "unit": "mg/L"}, {"measurement": "Activity", "setting": "Staphylococcus aureus [4]", "result": "inactive"}, {"measurement": "MIC", "setting": "Escherichia coli [5]", "result": 18.8, "unit": "mg/L"}, {"measurement": "Activity", "setting": "Staphylococcus aureus [6]", "result": "Active"}, {"measurement": "Activity", "setting": "Escherichia coli [7]", "result": "Active"}, {"measurement": "Activity", "setting": "Staphylococcus aureus [8]", "result": "Active"}, {"measurement": "MIC", "setting": "Enterococcus faecalis", "result": 37.5, "unit": "mg/L"}, {"measurement": "Activity", "setting": "Acinetobacter baumannii [9]", "result": "Active"}, {"measurement": "mortality at 24 h", "setting": "[10]", "result": 33, "unit": "%"}, {"measurement": "mortality at 24 h", "setting": "[11]", "result": 0, "unit": "%"}, {"measurement": "Activity", "setting": "Acinetobacter baumannii [12]", "result": "Active"}, {"measurement": "hemolysis at 100 microg/ml", "setting": "[13]", "result": "< 5", "unit": "%"}, {"measurement": "Activity", "setting": "[14]", "result": "Non-toxic"}, {"measurement": "MIC", "setting": "[15]", "result": 75, "unit": "mg/L"}, {"measurement": "MIC", "setting": "Staphylococcus aureus [16]", "result": "> 100", "unit": "mg/L"}, {"measurement": "Activity", "setting": "Acinetobacter baumannii [17]", "result": "Active"}, {"measurement": "MIC", "setting": "Enterococcus faecium", "result": 75, "unit": "mg/L"}, {"measurement": "Activity", "setting": "Acinetobacter baumannii [18]", "result": 60, "unit": "%"}, {"measurement": "Activity", "setting": "Acinetobacter baumannii [19]", "result": "Active"}, {"measurement": "Activity", "setting": "Peritoneal macrophage [20]", "result": "Active"}, {"measurement": "mortality at 24 h", "setting": "[21]", "result": 0, "unit": "%"}, {"measurement": "MIC", "setting": "Staphylococcus aureus [22]", "result": 75, "unit": "mg/L"}, {"measurement": "MIC", "setting": "Pseudomonas aeruginosa", "result": "> 100", "unit": "mg/L"}, {"measurement": "Activity", "setting": "Acinetobacter baumannii [23]", "result": "Active"}, {"measurement": "Activity", "setting": "Acinetobacter baumannii [24]", "result": "Active"}, {"measurement": "MIC", "setting": "Staphylococcus aureus [25]", "result": 75, "unit": "mg/L"}, {"measurement": "Activity", "setting": "Acinetobacter baumannii [26]", "result": "Active"}, {"measurement": "Activity", "setting": "Cell membrane [27]", "result": "Active"}, {"measurement": "Activity", "setting": "Escherichia coli [28]", "result": "Active"}, {"measurement": "Activity", "setting": "Acinetobacter baumannii [29]", "result": "Time-dependent-effect"}, {"measurement": "Activity", "setting": "Peritoneal macrophage [30]", "result": "Active"}, {"measurement": "MIC", "setting": "Clostridium perfringens", "result": 18.8, "unit": "mg/L"}, {"measurement": "fold change (FC)", "setting": "Staphylococcus aureus [31]", "result": 32}]}]}
